In US20110105565A1, “WATER SOLUBLE SMALL MOLECULE INHIBITORS OF THE CYSTIC FIBROSIS TRANSMEMBRANE CONDUCTANCE REGULATOR” (THE REGENTS OF THE UNIVERSITY OF CALIFORNIA, priority 2008, published 2011):
“Also recorded” adds a separate entry of the source.

Key:
CFTR = molecular target: T1, CFTR (Canis lupus familiaris, UniProt Q5U820); assay: Short-circuit current measurements in MDCK cells; assay type: cell-based, Canine; details: for CFTR expression, short-circuit current after incubation (in words): 10 μM, 1 or 48 hour incubation, washout 1 hour; for IC50: after CFTR stimulation by forskolin, read-out: IC50, inhibition of short-circuit current in MDCK cells
T1 construct: MDCK cells, which endogenously express CFTR; endogenous in cells; host or cells: MDCK cells
T1 sequence (Q5U820 whole entry): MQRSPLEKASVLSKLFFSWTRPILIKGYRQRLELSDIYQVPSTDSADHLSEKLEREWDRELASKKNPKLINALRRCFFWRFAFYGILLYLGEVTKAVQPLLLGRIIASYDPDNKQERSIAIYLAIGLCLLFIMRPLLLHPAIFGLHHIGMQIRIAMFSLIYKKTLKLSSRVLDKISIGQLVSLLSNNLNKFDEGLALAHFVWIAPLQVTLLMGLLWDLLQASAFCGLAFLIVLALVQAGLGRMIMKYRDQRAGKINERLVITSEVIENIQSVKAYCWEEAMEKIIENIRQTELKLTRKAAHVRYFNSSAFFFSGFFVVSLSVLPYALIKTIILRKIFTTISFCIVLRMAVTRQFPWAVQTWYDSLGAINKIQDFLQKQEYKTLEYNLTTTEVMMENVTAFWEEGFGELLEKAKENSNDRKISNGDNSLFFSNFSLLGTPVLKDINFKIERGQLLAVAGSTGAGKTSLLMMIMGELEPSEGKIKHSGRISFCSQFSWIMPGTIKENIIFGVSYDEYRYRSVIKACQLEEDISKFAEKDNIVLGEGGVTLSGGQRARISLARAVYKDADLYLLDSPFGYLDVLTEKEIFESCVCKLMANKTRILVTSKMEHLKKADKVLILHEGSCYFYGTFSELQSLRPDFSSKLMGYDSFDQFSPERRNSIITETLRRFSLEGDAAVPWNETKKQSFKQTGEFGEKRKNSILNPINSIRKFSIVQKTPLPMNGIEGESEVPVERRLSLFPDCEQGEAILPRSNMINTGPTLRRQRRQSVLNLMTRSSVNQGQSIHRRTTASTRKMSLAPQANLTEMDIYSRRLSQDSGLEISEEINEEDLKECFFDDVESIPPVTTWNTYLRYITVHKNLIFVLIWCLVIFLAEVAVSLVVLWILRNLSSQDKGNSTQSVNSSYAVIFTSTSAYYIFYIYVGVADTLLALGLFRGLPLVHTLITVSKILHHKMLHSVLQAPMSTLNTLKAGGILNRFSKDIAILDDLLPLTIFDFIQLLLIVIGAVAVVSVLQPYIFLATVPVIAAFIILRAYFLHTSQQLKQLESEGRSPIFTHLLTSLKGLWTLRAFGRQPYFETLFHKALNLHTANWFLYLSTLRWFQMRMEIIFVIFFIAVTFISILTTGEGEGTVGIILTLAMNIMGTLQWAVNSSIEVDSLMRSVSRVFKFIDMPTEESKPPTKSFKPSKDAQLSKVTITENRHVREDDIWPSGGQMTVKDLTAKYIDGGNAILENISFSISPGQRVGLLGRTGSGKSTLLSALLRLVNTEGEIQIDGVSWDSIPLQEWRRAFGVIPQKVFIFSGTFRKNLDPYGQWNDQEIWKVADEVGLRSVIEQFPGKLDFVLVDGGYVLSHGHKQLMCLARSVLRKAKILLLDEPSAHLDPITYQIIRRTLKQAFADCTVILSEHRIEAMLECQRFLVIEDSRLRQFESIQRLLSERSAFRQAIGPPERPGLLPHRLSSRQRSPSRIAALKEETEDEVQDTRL
Method: CFTR inhibition potency was confirmed in MDCK cells by short-circuit current analysis. Snapwell inserts containing MDCK cells (transepithelial resistance 1000-2000 Ohms) were mounted in a standard Using chamber system. The basolateral membrane was permeabilized with 250 μg/ml amphotericin B. The hemichambers were filled with 5 mL of 65 mM NaCl, 65 mM Na-gluconate, 2.7 mM KCl, 1.5 mM KH2PO4, 1 mM CaCl2, 0.5 mM MgCl2, Na-Hepes and 10 mM glucose (apical), and 130 mM NaCl, 2.7 mM KCl, 1.5 mM KH2PO4, 1 mM CaCl2, 0.5 mM MgCl2, Na-Hepes and 10 mM glucose (basolateral) (pH 7.3). Short-circuit current was recorded continuously using a DVC-1000 voltage clamp (World Precision Instruments, Sarasota Fla.) with Ag/AgCl electrodes and 1 M KCl agar bridges.
In some experiments, MDCK cells in Snapwell inserts were cultured in medium containing 10 μM T08 or G07 for 1 or 48 hours. Compounds were washed out with medium for 1 hour before short-circuit current measurements.

embryonic kidneys = assay: Embryonic kidney organ culture model (8-Br-cAMP-induced cysts); assay type: cell-based, mouse; details: for cyst formation in embryonic kidneys (in words): 100 μM 8-Br-cAMP, 4 days; for kidney length after 4 days in culture: absence of 8-Br-cAMP
Description: An embryonic kidney organ culture model was used to further evaluate compounds T08 and G07. Embryonic kidney culture models permit organotypic growth and differentiation of renal tissue in defined media without the confounding effects of circulating hormones and glomerular filtration (see, e.g., Magenheimer et al., J Am Soc Nephrol 17: 3424-37, 2006; and Gupta et al., Kidney Int 63: 365-376, 2003). In addition, the early mouse kidney tubule in this model has an intrinsic capacity to secrete fluid in response to cAMP by a CFTR-dependent mechanism (Magenheimer et al.), allowing the evaluation of CFTR inhibitors in particular.
Mouse embryos were obtained at embryonic day 13.5 (E13.5). Metanephroi were dissected and placed on transparent Falcon […] porous cell culture inserts. To the culture inserts was added DMEM/Ham's F-12 nutrient medium supplemented with 2 mM L-glutamine, 10 mM HEPES, 5 μg/ml insulin, 5 μg/ml transferrin, 2.8 nM selenium, 25 ng/ml prostaglandin E, 32 pg/ml T3, 250 U/ml penicillin and 250 μg/ml streptomycin. Kidneys were maintained in a 37° C. humidified CO2 incubator, and were cultured for 4 days in the absence or presence of 100 μM 8-Br-cAMP. Culture medium containing 100 μM 8-Br-cAMP, with or without CFTR inhibitors, was replaced (in the lower chamber) every 12 hours.
Kidneys were photographed using a Nikon inverted microscope (Nikon TE 2000-S) equipped with 2× objective lens, 520 nm bandpass filter, and high-resolution PixeLINK color CCD camera. […] Cyst sizes in micrographs of metanephroi were determined using MATLAB 7.0 software. A masking procedure was used to highlight all pixels of similar intensity within each cyst. Fractional cyst area was calculated as total cyst area divided by total kidney area. Cysts with diameters >50 μm were included in the analysis. Image acquisition and analysis was done without knowledge of treatment condition.

[1] = HPLC/MS measurement of inhibitor concentration in urine after subcutaneous administration; assay type: in vivo, mouse; details: 4 times daily for 3 days, 5 mg/kg/day; for concentration at 1 h: 1 hour after final dosing; for concentration at 5 h: 5 hour after final dosing
Method: CFTR inhibitors (5-10 mg/kg/day) or saline DMSO vehicle control (0.05 mL/injection) were administrated by subcutaneous injection on the backs of neonatal mice four times a day for 3 or 7 days using a 1 cc insulin syringe, beginning at age 2 days (11 mice per group). Pkd1^flox/+; Ksp-Cre or Pkd1^flox/+ mice from the same litter were used as controls. During the treatment period, control and Pkd1^flox/−; Ksp-Cre mice, with or without CFTR inhibitor treatment, were indistinguishable in their activity and behavior. Body weight was measured at day 5 (3 days after treatment), at which time there was no difference in body weight in any of the mouse groups. Blood and urine samples were collected for measurements of CFTR inhibitor concentration and renal function. Kidneys were removed and weighed, and fixed for histological examination or homogenized for determination of CFTR inhibitor content.
For high-performance liquid chromatography/mass spectrometry (HPLC/MS) analysis of CFTR inhibitor concentration, kidneys were homogenized in 50-100 μl of PBS for 5 min using an EPPENDORF pellet pestle homogenizer. The homogenate was mixed with an equal volume of chilled acetonitrile to precipitate proteins. After centrifugation at 5000×g for 10 min the supernatant was evaporated under nitrogen, and the residue was dissolved in eluent (50% CH3CN/20 mM NH4OAc). Urine samples were directly diluted 10-fold with eluent. Reversed-phase HPLC separations were carried out using a WATERS C18 column (2.1×100 mm, 2.5 μm particle size) equipped with a solvent delivery system (WATERS model 2690, Milford, Mass.). The solvent system consisted of a linear gradient from 20% CH3CN/20 mM NH4OAc to 95% CH3CN/20 mM NH4OAc, run over 20 min, followed by 5 min at 95% CH3CN/20 mM NH4OAc (0.2 mL/min flow rate). Mass spectra were acquired on an Alliance HT 2790+ZQ mass spectrometer using negative ion detection, scanning from 150 to 1500 Da. The electrospray ion source parameters were: capillary voltage 3.2 kV (negative ion mode) or 3.5 kV (positive ion mode), cone voltage 37 V, source temperature 120° C., desolvation temperature 250° C., cone gas flow 25 L/h, and dessolvation gas flow 350 L/h.
Concentrations were measured to establish dosing to give sustained concentrations in kidney/urine of >1 μM, where CFTR is inhibited. Kidney and urine samples were obtained from mice after 4 times daily subcutaneous administration for 3 days at 5 mg/kg/day, a dose regimen determined from preliminary studies. Urinary concentrations were measured at 1 and 5 hour after the final dosing. For tetrazolo-CFTRinh-172, urine concentrations were 3.3 and 3.6 μM at 1 and 5 hour, respectively. The urine concentrations of Ph-GlyH-101 were 4.3 and 5.8 μM. […] These concentrations are several-fold greater than the IC50 for CFTR inhibition.

Compound | CFTR expression, short-circuit current after incubation (in words) (CFTR) | IC50 (CFTR) [nM] | cyst formation in embryonic kidneys (in words) (embryonic kidneys) | kidney length after 4 days in culture (embryonic kidneys) [mm] | concentration at 1 h [1] [µM] | concentration at 5 h [1] [µM] | concentration at 1 h ([1]; C57BL/6, mouse, urine, sc) [µM] | concentration at 5 h ([1]; C57BL/6, mouse, urine, sc) [µM] | cyst formation in embryonic kidneys (in words) (embryonic kidneys; listed as T08)
N-2-naphthalenyl-2-hydroxyethyl-[(3,5-dibromo-2,4-dihydroxyphenyl)methylene]phenylglycinehydrazide [Compound G07] | did not alter CFTR expression | ~1000 | remarkably reduced cyst formation; also recorded: reduced the number and size of cysts | 7.1±0.4 | 4.3 | 5.8 | – | – | –
O=C1/C(=C/c2ccc(-c3nn[nH]n3)cc2)SC(=S)N1c1cccc(C(F)(F)F)c1 [Compound 6, (Z)-5-(4-(1H-tetrazol-5-yl)benzylidene)-2-thioxo-3-(3-(trifluoromethyl)phenyl)thiazolidin-4-one] | – | ~1000 | – | 7.4±0.5 | – | – | 3.3 | 3.6 | –
O=C1/C(=C/c2ccc(-c3nnn[nH]3)cc2)SC(=S)N1c1cccc(C(F)(F)F)c1 [Compound 6, (Z)-5-(4-(1H-tetrazol-5-yl)benzylidene)-2-thioxo-3-(3-(trifluoromethyl)phenyl)thiazolidin-4-one] | did not alter CFTR expression | – | – | – | – | – | – | – | remarkably reduced cyst formation; also recorded: reduced the number and size of cysts
